Data taken from patent publication US7037942B2, “Amide compounds for the potentiation of cholinergic activity” (Astellas Pharma Inc., priority 1999, dated 2006).

System: penile erection
Experiment: Penile erection in rat
Assay type: in vivo
Conditions: male Fischer 344 rats, intraperitoneal, observed 60 minutes, mean number
Description: (This test was carried out according to a similar manner to that described in Jpn. J. Pharmacol., Vol. 64, 147–153 (1994))
Male Fischer 344 rats at the age of 8 weeks (n=7) were used. All rats were handled 3 minutes a day for three successive days before the tests. The rats were tested in groups of seven and various doses of the test compound were given in semi-randomized order. The test compounds were suspended in 0.5% methyl-cellulose immediately before use, and given intraperitoneally in a volume of 1 ml/kg just before the start of test. […] A mirror was situated behind each box […]. Data was expressed as a mean number.

| Structure (SMILES) | Penile Erection (Number/hr) (dose 0.32 mg/kg) | Penile Erection (Number/hr) (dose 0.1 mg/kg) |
| --- | --- | --- |
| O=C(Nc1ccc(F)cc1)N1CC=CCC1 [Example 2, 1-(4-fluorophenylcarbamoyl)-1,2,3,6-tetrahydropyridine] | 0.57 |  |
| O=C(NC1CCc2ccccc2C1)c1ccc(F)cc1 (stereo not shown) [Example 6, 2-(4-Fluorobenzoylamino)-1,2,3,4-tetrahydronaphthalene] | 0.60 |  |
| CC1=CCC(NC(=O)c2ccncc2)CC1 (stereo not shown) [Example 7, 1-(pyridin-4-ylcarbonylamino)-4-methylcyclohex-3-ene] |  | 0.71 |
| O=C(NC1CCc2ccccc2C1)c1ccncc1 (stereo not shown) [Example 8, 2-(Pyridin-4-ylcarbonylamino)-1,2,3,4-tetrahydro-naphthalene] |  | 0.60 |
